Data: patent publication US6635650B2, “Substituted dimeric compounds” (Les Laboratoires Servier, priority 1999, dated 2003)

melting point: 142 to 144 °C
Structure (SMILES): CC(=O)NCCc1cccc2ccc(OCCCCCCOc3ccc4cccc(CCNC(C)=O)c4c3)cc12 [Example 17, N-[2-(7-{[6-({8-[2-(Acetylamino)ethyl]-2-naphthyl}oxy)hexyl]oxy}-1-naphthyl)ethyl]acetamide]
